Active and inactive are the calls of the source. No rule for the calls is given here.
Test system: CCRIS mutagenicity, Ames/micronucleus/aberration tests
Assay: CCRIS mutagenicity studies

Structure (SMILES): C#C[C@]1(O)CC[C@H]2[C@@H]3CCc4cc(O)ccc4[C@H]3CC[C@@]21C
- mutagenic call (End Point: IN VITRO CHROMOSOMAL ABERRATIONS, Test System: CHINESE HAMSTER CELL DON (22;XY), Metabolic Activation: NONE): active; positive (ploidy changes)
- mutagenic call (End Point: IN VITRO CHROMOSOMAL ABERRATIONS, Test System: CHO CELLS, Metabolic Activation: NONE): active; positive
- mutagenic call (End Point: IN VITRO CHROMOSOMAL ABERRATIONS, Test System: HUMAN (FEMALE) PERIPHERAL BLOOD LYMPHOCYTES, Metabolic Activation: NONE): inactive; negative
- mutagenic call (End Point: IN VITRO CHROMOSOMAL ABERRATIONS, Test System: HUMAN (FEMALE) PERIPHERAL BLOOD LYMPHOCYTES, Metabolic Activation: RAT, LIVER, S-9, NO NADP): inactive; negative
- mutagenic call (End Point: IN VITRO CHROMOSOMAL ABERRATIONS, Test System: HUMAN (FEMALE) PERIPHERAL BLOOD LYMPHOCYTES, Metabolic Activation: RAT, LIVER, S-9, WITH NADP ADDITION): active; positive (structural changes)
- mutagenic call (End Point: IN VITRO CHROMOSOMAL ABERRATIONS, Test System: HUMAN PERIPHERAL LYMPHOCYTES, Metabolic Activation: NONE): inactive; negative
- mutagenic call (End Point: IN VITRO CHROMOSOMAL ABERRATIONS, Test System: HUMAN PERIPHERAL LYMPHOCYTES, Metabolic Activation: RAT, LIVER, S-9, AROCLOR 1254): inactive; negative
- mutagenic call (End Point: IN VIVO MICRONUCLEUS, Test System: BONE MARROW POLYCHROMATIC ERYTHROCYTES, Species: MOUSE, Strain/Sex: NMRI/FEMALE, Route: INTRAGASTRIC): inactive; negative
- mutagenic call (End Point: IN VIVO MICRONUCLEUS, Test System: BONE MARROW POLYCHROMATIC ERYTHROCYTES, Species: MOUSE, Strain/Sex: SWISS ALBINO, Route: ORAL (GAVAGE)): inactive; negative
- mutagenic call (Test System: AMES SALMONELLA TYPHIMURIUM, Strain/Indicator: TA97, Metabolic Activation: HAMSTER, LIVER, S-9, AROCLOR 1254 (10 OR 30%), Method: PREINCUBATION): inactive; negative
- mutagenic call (Test System: AMES SALMONELLA TYPHIMURIUM, Strain/Indicator: TA97, Metabolic Activation: NONE, Method: PREINCUBATION): inactive; negative
- mutagenic call (Test System: AMES SALMONELLA TYPHIMURIUM, Strain/Indicator: TA97, Metabolic Activation: RAT, LIVER, S-9, AROCLOR 1254 (10%), Method: PREINCUBATION): inactive; negative
- mutagenic call (Test System: AMES SALMONELLA TYPHIMURIUM, Strain/Indicator: TA97, Metabolic Activation: RAT, LIVER, S-9, AROCLOR 1254 (30%), Method: PREINCUBATION): inactive; negative
- mutagenic call (Test System: AMES SALMONELLA TYPHIMURIUM, Strain/Indicator: TA98, Metabolic Activation: HAMSTER, LIVER, S-9, AROCLOR 1254 (10 OR 30%), Method: PREINCUBATION): inactive; negative
- mutagenic call (Test System: AMES SALMONELLA TYPHIMURIUM, Strain/Indicator: TA98, Metabolic Activation: MOUSE, LIVER, S-9, Method: STANDARD PLATE): inactive; negative
- mutagenic call (Test System: AMES SALMONELLA TYPHIMURIUM, Strain/Indicator: TA98, Metabolic Activation: NONE): inactive; negative
- mutagenic call (Test System: AMES SALMONELLA TYPHIMURIUM, Strain/Indicator: TA98, Metabolic Activation: NONE, Method: PREINCUBATION): inactive; negative
- mutagenic call (Test System: AMES SALMONELLA TYPHIMURIUM, Strain/Indicator: TA98, Metabolic Activation: NONE, Method: STANDARD PLATE): inactive; negative
- mutagenic call (Test System: AMES SALMONELLA TYPHIMURIUM, Strain/Indicator: TA98, Metabolic Activation: RAT, LIVER, S-9, AROCLOR 1254 (10%), Method: PREINCUBATION): inactive; negative
- mutagenic call (Test System: AMES SALMONELLA TYPHIMURIUM, Strain/Indicator: TA98, Metabolic Activation: RAT, LIVER, S-9, AROCLOR 1254 (30%), Method: PREINCUBATION): inactive; negative
- mutagenic call (Test System: AMES SALMONELLA TYPHIMURIUM, Strain/Indicator: TA98, Metabolic Activation: RAT, LIVER, S-9, AROCLOR 1254, Method: STANDARD PLATE): inactive; negative
- mutagenic call (Test System: AMES SALMONELLA TYPHIMURIUM, Strain/Indicator: TA98, Metabolic Activation: S-9): inactive; negative
- mutagenic call (Test System: AMES SALMONELLA TYPHIMURIUM, Strain/Indicator: TA100, Metabolic Activation: HAMSTER, LIVER, S-9, AROCLOR 1254 (10 OR 30%), Method: PREINCUBATION): inactive; negative
- mutagenic call (Test System: AMES SALMONELLA TYPHIMURIUM, Strain/Indicator: TA100, Metabolic Activation: MOUSE, LIVER, S-9, Method: STANDARD PLATE): inactive; negative
- mutagenic call (Test System: AMES SALMONELLA TYPHIMURIUM, Strain/Indicator: TA100, Metabolic Activation: NONE): inactive; negative
- mutagenic call (Test System: AMES SALMONELLA TYPHIMURIUM, Strain/Indicator: TA100, Metabolic Activation: NONE, Method: PREINCUBATION): inactive; negative
- mutagenic call (Test System: AMES SALMONELLA TYPHIMURIUM, Strain/Indicator: TA100, Metabolic Activation: NONE, Method: STANDARD PLATE): inactive; negative
- mutagenic call (Test System: AMES SALMONELLA TYPHIMURIUM, Strain/Indicator: TA100, Metabolic Activation: RAT, LIVER, S-9, AROCLOR 1254 (10%), Method: PREINCUBATION): inactive; negative
- mutagenic call (Test System: AMES SALMONELLA TYPHIMURIUM, Strain/Indicator: TA100, Metabolic Activation: RAT, LIVER, S-9, AROCLOR 1254 (30%), Method: PREINCUBATION): inactive; negative
- mutagenic call (Test System: AMES SALMONELLA TYPHIMURIUM, Strain/Indicator: TA100, Metabolic Activation: RAT, LIVER, S-9, AROCLOR 1254, Method: STANDARD PLATE): inactive; negative
- mutagenic call (Test System: AMES SALMONELLA TYPHIMURIUM, Strain/Indicator: TA100, Metabolic Activation: S-9): inactive; negative
- mutagenic call (Test System: AMES SALMONELLA TYPHIMURIUM, Strain/Indicator: TA1535, Metabolic Activation: HAMSTER, LIVER, S-9, AROCLOR 1254 (10 OR 30%), Method: PREINCUBATION): inactive; negative
- mutagenic call (Test System: AMES SALMONELLA TYPHIMURIUM, Strain/Indicator: TA1535, Metabolic Activation: MOUSE, LIVER, S-9, Method: STANDARD PLATE): inactive; negative
- mutagenic call (Test System: AMES SALMONELLA TYPHIMURIUM, Strain/Indicator: TA1535, Metabolic Activation: NONE): inactive; negative
- mutagenic call (Test System: AMES SALMONELLA TYPHIMURIUM, Strain/Indicator: TA1535, Metabolic Activation: NONE, Method: PREINCUBATION): inactive; negative
- mutagenic call (Test System: AMES SALMONELLA TYPHIMURIUM, Strain/Indicator: TA1535, Metabolic Activation: NONE, Method: STANDARD PLATE): inactive; negative
- mutagenic call (Test System: AMES SALMONELLA TYPHIMURIUM, Strain/Indicator: TA1535, Metabolic Activation: RAT, LIVER, S-9, AROCLOR 1254 (10%), Method: PREINCUBATION): inactive; negative
- mutagenic call (Test System: AMES SALMONELLA TYPHIMURIUM, Strain/Indicator: TA1535, Metabolic Activation: RAT, LIVER, S-9, AROCLOR 1254 (30%), Method: PREINCUBATION): inactive; negative
- mutagenic call (Test System: AMES SALMONELLA TYPHIMURIUM, Strain/Indicator: TA1535, Metabolic Activation: RAT, LIVER, S-9, AROCLOR 1254, Method: STANDARD PLATE): inactive; negative
- mutagenic call (Test System: AMES SALMONELLA TYPHIMURIUM, Strain/Indicator: TA1535, Metabolic Activation: S-9): inactive; negative
- mutagenic call (Test System: AMES SALMONELLA TYPHIMURIUM, Strain/Indicator: TA1537, Metabolic Activation: MOUSE, LIVER, S-9, Method: STANDARD PLATE): inactive; negative
- mutagenic call (Test System: AMES SALMONELLA TYPHIMURIUM, Strain/Indicator: TA1537, Metabolic Activation: NONE): inactive; negative
- mutagenic call (Test System: AMES SALMONELLA TYPHIMURIUM, Strain/Indicator: TA1537, Metabolic Activation: NONE, Method: STANDARD PLATE): inactive; negative
- mutagenic call (Test System: AMES SALMONELLA TYPHIMURIUM, Strain/Indicator: TA1537, Metabolic Activation: RAT, LIVER, S-9, AROCLOR 1254, Method: STANDARD PLATE): inactive; negative
- mutagenic call (Test System: AMES SALMONELLA TYPHIMURIUM, Strain/Indicator: TA1537, Metabolic Activation: S-9): inactive; negative
- mutagenic call (Test System: AMES SALMONELLA TYPHIMURIUM, Strain/Indicator: TA1538, Metabolic Activation: MOUSE, LIVER, S-9, Method: STANDARD PLATE): inactive; negative
- mutagenic call (Test System: AMES SALMONELLA TYPHIMURIUM, Strain/Indicator: TA1538, Metabolic Activation: NONE, Method: STANDARD PLATE): inactive; negative
- mutagenic call (Test System: AMES SALMONELLA TYPHIMURIUM, Strain/Indicator: TA1538, Metabolic Activation: RAT, LIVER, S-9, AROCLOR 1254, Method: STANDARD PLATE): inactive; negative
- mutagenic call (Test System: E. COLI, Strain/Indicator: WP2 UVRA, Metabolic Activation: HAMSTER, LIVER, S-9, AROCLOR 1254, Method: STANDARD PLATE): inactive; negative
- mutagenic call (Test System: E. COLI, Strain/Indicator: WP2 UVRA, Metabolic Activation: HAMSTER, LIVER, S-9, Method: STANDARD PLATE): inactive; negative
- mutagenic call (Test System: E. COLI, Strain/Indicator: WP2 UVRA, Metabolic Activation: MOUSE, LIVER, S-9, AROCLOR 1254, Method: STANDARD PLATE): inactive; negative
- mutagenic call (Test System: E. COLI, Strain/Indicator: WP2 UVRA, Metabolic Activation: MOUSE, LIVER, S-9, Method: STANDARD PLATE): inactive; negative
- mutagenic call (Test System: E. COLI, Strain/Indicator: WP2 UVRA, Metabolic Activation: NONE): inactive; negative
- mutagenic call (Test System: E. COLI, Strain/Indicator: WP2 UVRA, Metabolic Activation: NONE, Method: STANDARD PLATE): inactive; negative
- mutagenic call (Test System: E. COLI, Strain/Indicator: WP2 UVRA, Metabolic Activation: RAT, LIVER, S-9, AROCLOR 1254, Method: STANDARD PLATE): inactive; negative
- mutagenic call (Test System: E. COLI, Strain/Indicator: WP2 UVRA, Metabolic Activation: RAT, LIVER, S-9, Method: STANDARD PLATE): inactive; negative
- mutagenic call (Test System: E. COLI, Strain/Indicator: WP2 UVRA, Metabolic Activation: S-9): inactive; negative
